{"source": "ChEMBL document CHEMBL4840306", "about": "“Chemodynamic therapy agents Cu(II) complexes of quinoline derivatives induced ER stress and mitochondria-mediated apoptosis in SK-OV-3 cells” (Eur J Med Chem, 2021)", "key": {"HepG2": {"system": "HepG2", "assay": "Cytotoxicity against human HepG2 cells assessed as reduction in cell viability measured after 48 hrs by MTT assay", "assay_type": "functional, cell-based", "details": "HepG2, 48 h"}, "T-24": {"system": "T-24", "assay": "Cytotoxicity against human T-24 cells assessed as reduction in cell viability measured after 48 hrs by MTT assay", "assay_type": "functional, cell-based", "details": "T-24, 48 h"}, "SK-OV-3": {"system": "SK-OV-3", "assay": "Cytotoxicity against human SK-OV-3 cells assessed as reduction in cell viability measured after 48 hrs by MTT assay", "assay_type": "functional, cell-based", "details": "SK-OV-3, 48 h"}, "L02": {"system": "L02", "assay": "Cytotoxicity against human HL7702 cells assessed as reduction in cell viability measured after 48 hrs by MTT assay", "assay_type": "cell-based", "details": "L02, 48 h"}, "WI-38": {"system": "WI-38", "assay": "Cytotoxicity against human WI-38 cells assessed as reduction in cell viability measured after 48 hrs by MTT assay", "assay_type": "cell-based", "details": "WI-38, 48 h"}, "MGC-803": {"system": "MGC-803", "assay": "Cytotoxicity against human MGC-803 cells assessed as reduction in cell viability measured after 48 hrs by MTT assay", "assay_type": "functional, cell-based", "details": "MGC-803, 48 h"}}, "data": [{"smiles": "Oc1cccc(/C=N/c2cc3ccccc3nc2-c2ccccc2F)c1O", "values": [{"measurement": "IC50", "setting": "HepG2", "value": "> 40", "unit": "µM"}, {"measurement": "IC50", "setting": "T-24", "value": "> 40", "unit": "µM"}, {"measurement": "IC50", "setting": "SK-OV-3", "value": 23.6, "unit": "µM"}, {"measurement": "IC50", "setting": "L02", "value": 34, "unit": "µM"}, {"measurement": "IC50", "setting": "WI-38", "value": "> 40", "unit": "µM"}, {"measurement": "IC50", "setting": "MGC-803", "value": "> 40", "unit": "µM"}]}]}
